Measurements as given in PMC10296995, “Phospholipid Encapsulation of an Anti-Fibrotic Endopeptide to Enhance Cellular Uptake and Myocardial Retention” (Cells, 2023).
Where a SMILES comes first, the peptide text is derived from it.

Tests used:
[1] = test system: human cardiac fibroblasts; assay: MTT cell viability assay, cardiac fibroblasts; type: cell-based; conditions: 0.24 µg/mL, 24 h, n = 7-8
Procedure: To access cell viability and proliferation in response to the liposome-peptide, Thiazolyl Blue Tetrazolium Bromide (MTT; Sigma-Aldrich, M2128) assay was performed. Briefly, human cardiac fibroblasts (Lifeline Cell Technology, San Diego, CA, USA #FC-0060) and RAW macrophages were plated into 96-well plates at a density of 8000–10,000 cells/well. After 24 h, cells were serum-starved overnight, followed by incubation in empty liposomes and PBS (L-PBS), L-Ac-SDKP (0.24 µg/mL), or Ac-SDKP (0.24 µg/mL) for an additional 24 h. After this, the media were replaced, and the cells were incubated in the MTT substrate for 3.5 h at 37 °C. The yellow-orange colored product, a stable soluble formazan, was quantified at 450 nm using a microplate reader. Relative viability was calculated in relation to the cells treated with culture media alone as a control.

[2] = test system: primary mouse cardiac fibroblasts; assay: Cellular uptake by flow cytometry, cardiac fibroblasts; type: cell-based; conditions: FITC-labeled peptide 0.24 µg/mL, 4 h, mean ± SD, n = 4
Procedure: Cellular uptake of L-Ac-SDKP was assessed in mouse cardiac fibroblasts and macrophages. Briefly, cultured macrophages (RAW 264.7 cells, ATCC) and primary mouse cardiac fibroblasts were incubated with L-Ac-SDKP or free peptides (Ac-SDKP) at a concentration of 0.24 µg/mL. For the intracellular distribution assay, cells were cultured on sterile coverslips, incubated with Ac-SDKP or L-Ac-SDKP for 4 h, fixed with 4% paraformaldehyde, mounted, and imaged using a fluorescence microscope (Zeiss LSM 800 laser scanning microscope) at ×400 magnification. For quantification of the peptide uptake, cells were detached and examined with a BD Accuri C6-Plus flow cytometer and further analyzed by FCS Express 6-De Novo software, […].

[3] = rapid breakdown by angiotensin-converting enzymes; cited from earlier work
Text: (a) Schematic representation of free Ac-SDKP, a liposome (a lipid bilayer nanoparticle), and L-Ac-SDKP (Ac-SDKP inside the liposome). (b,c) Representative graphs of liposome size distribution and zeta potential, respectively, by nanoparticle tracking analysis. Comparative data for empty liposome (L-PBS) and L-Ac-SDKP for (d) size, (e) polydispersity, and (f) zeta potential. (g), Ac-SDKP concentration in the liposomal formulations (L-PBS vs. L-Ac-SDKP). Cryo-TEM images of L-Ac-SDKP (h) and empty liposome (L-PBS) (i) and a comparative data for size (j). Scale ...

In the case of `CC(=O)N[C@@H](CO)C(=O)N[C@@H](CC(=O)O)C(=O)N[C@@H](CCCCN)C(=O)N1CCC[C@H]1C(=O)O` [Ac-SDKP, N-acetyl-ser-asp-lys-pro] (Ac-SDKP-OH), the “percent cell viability, cardiac fibroblasts” value [1] is listed as “did not affect percent cell viability”, the “percentage of FITC-positive cardiac fibroblasts (uptake)” value [2] is listed as 8.5% ± 2.96 and the plasma half-life [3] is listed as 4.5 min.
